{"source": "paper PMC12281424", "about": "“A Rac-specific competitive inhibitor of guanine nucleotide binding reduces metastasis in triple-negative breast cancer” (Cell Reports Medicine, 2025)", "key": {"[1]": {"biological_target": "SAPK2a(h) (Homo sapiens, UniProt Q16539)", "assay": "Kinase Profiler", "format": "biochemical", "protocol": "(§1) The kinase profiler was performed by the company Eurofins (Discovery, Panlab and Cerep)."}, "[2]": {"biological_target": "ICK(h) (Homo sapiens, UniProt Q9UPZ9)", "assay": "Kinase Profiler", "format": "biochemical", "protocol": "as §1"}, "[3]": {"biological_target": "MARK3(h) (Homo sapiens, UniProt P27448)", "assay": "Kinase Profiler", "format": "biochemical", "protocol": "as §1"}, "[4]": {"biological_target": "Aurora-C(h) (Homo sapiens, UniProt Q9UQB9)", "assay": "Kinase Profiler", "format": "biochemical", "protocol": "(§2) Blood cell counts, kinase profiler, safety screen, bacterial cytotoxicity, Ames, micronucleus assays were performed by the company Eurofins (France). The kinase profiler was performed by the company Eurofins (Discovery, Panlab and Cerep)."}, "[5]": {"biological_target": "Opiate µ(OP3, MOP) (Homo sapiens, UniProt P35372)", "assay": "Safety screen", "format": "binding", "protocol": "as §2"}, "[6]": {"biological_target": "CDK12/cyclinK(h) (Homo sapiens, UniProt Q9NYV4)", "assay": "Kinase Profiler", "format": "biochemical", "protocol": "as §2"}, "[7]": {"tested_on": "TA98", "assay": "Bacterial cytotoxicity", "format": "cell-based", "excerpt": "Data S2. Bacterial cytotoxicity of A41.\nTest Concentration %Effect Cytotoxicity (% of control)"}, "[8]": {"biological_target": "PI3K (p110d/p85a)(h) (Homo sapiens, UniProt O00329)", "sequence (O00329 whole entry)": "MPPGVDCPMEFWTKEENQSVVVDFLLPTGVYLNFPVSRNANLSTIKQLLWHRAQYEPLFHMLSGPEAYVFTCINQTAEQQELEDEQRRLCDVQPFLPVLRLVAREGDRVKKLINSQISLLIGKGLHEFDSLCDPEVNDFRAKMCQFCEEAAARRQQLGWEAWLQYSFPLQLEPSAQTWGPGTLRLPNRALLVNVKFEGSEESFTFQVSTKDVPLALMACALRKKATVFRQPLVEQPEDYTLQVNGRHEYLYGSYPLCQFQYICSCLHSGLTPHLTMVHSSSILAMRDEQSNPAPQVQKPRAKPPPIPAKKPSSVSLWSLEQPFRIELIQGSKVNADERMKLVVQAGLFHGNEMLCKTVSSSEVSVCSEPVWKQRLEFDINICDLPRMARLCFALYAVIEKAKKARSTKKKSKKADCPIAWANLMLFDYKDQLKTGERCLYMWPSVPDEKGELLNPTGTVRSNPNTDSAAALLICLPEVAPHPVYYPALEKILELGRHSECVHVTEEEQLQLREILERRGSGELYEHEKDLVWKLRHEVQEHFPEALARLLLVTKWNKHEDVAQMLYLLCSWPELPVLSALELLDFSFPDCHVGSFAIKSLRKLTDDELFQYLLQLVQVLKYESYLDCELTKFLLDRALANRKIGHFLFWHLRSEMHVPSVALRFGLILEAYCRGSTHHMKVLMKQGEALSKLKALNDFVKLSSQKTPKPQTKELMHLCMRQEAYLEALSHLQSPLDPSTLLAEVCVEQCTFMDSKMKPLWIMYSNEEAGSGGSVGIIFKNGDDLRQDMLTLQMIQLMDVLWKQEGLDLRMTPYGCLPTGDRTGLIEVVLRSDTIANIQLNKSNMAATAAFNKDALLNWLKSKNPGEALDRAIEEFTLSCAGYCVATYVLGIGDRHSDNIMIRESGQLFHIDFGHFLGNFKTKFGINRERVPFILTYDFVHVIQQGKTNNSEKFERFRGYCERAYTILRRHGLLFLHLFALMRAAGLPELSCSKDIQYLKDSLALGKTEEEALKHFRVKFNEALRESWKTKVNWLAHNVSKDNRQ", "sequence (P27986 whole entry partner)": "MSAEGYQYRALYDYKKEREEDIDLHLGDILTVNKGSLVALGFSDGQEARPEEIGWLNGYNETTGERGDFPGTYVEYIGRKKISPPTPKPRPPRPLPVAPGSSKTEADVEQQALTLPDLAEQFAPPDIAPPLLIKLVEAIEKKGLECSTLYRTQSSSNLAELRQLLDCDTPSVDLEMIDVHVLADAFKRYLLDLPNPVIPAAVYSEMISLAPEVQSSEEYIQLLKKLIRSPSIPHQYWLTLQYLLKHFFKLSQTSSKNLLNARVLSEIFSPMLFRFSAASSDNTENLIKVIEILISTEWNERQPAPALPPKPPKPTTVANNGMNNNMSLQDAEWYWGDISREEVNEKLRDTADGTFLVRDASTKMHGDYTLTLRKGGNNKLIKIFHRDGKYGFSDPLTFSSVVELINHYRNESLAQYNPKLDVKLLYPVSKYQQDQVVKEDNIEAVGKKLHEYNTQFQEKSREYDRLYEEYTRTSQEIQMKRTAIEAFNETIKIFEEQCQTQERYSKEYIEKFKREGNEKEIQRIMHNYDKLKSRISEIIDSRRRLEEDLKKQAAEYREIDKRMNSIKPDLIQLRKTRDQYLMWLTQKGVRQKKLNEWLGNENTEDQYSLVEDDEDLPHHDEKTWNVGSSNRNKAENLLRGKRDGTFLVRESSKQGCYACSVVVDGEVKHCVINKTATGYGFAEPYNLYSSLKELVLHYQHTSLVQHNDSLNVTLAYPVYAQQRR", "assay": "Kinase Profiler", "format": "biochemical", "protocol": "as §2"}, "[9]": {"biological_target": "TNIK(h) (Homo sapiens, UniProt Q9UKE5)", "assay": "Kinase Profiler", "format": "biochemical", "protocol": "as §1"}, "[10]": {"biological_target": "B-Raf(V599E)(h) (Homo sapiens, UniProt P15056, V600E)", "assay": "Kinase Profiler", "format": "biochemical", "protocol": "as §2"}, "[11]": {"biological_target": "SAPK4(h) (Homo sapiens, UniProt O15264)", "sequence (O15264 whole entry)": "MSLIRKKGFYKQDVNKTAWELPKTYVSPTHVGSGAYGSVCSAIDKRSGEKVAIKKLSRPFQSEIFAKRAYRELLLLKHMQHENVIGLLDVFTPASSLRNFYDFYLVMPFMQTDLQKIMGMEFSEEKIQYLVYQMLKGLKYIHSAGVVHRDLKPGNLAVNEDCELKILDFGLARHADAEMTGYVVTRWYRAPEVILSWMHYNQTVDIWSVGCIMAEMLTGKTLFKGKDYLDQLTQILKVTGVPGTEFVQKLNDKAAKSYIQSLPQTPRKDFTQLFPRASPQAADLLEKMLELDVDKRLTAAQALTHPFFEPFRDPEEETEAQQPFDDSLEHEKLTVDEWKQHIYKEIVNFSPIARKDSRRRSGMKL", "assay": "Kinase Profiler", "format": "biochemical", "protocol": "as §1"}, "[12]": {"biological_target": "ULK2(h) (Homo sapiens, UniProt Q8IYT8)", "assay": "Kinase Profiler", "format": "biochemical", "protocol": "as §2"}, "[13]": {"biological_target": "Adrenergic α1B (Rattus norvegicus, UniProt P15823)", "sequence (P15823 whole entry)": "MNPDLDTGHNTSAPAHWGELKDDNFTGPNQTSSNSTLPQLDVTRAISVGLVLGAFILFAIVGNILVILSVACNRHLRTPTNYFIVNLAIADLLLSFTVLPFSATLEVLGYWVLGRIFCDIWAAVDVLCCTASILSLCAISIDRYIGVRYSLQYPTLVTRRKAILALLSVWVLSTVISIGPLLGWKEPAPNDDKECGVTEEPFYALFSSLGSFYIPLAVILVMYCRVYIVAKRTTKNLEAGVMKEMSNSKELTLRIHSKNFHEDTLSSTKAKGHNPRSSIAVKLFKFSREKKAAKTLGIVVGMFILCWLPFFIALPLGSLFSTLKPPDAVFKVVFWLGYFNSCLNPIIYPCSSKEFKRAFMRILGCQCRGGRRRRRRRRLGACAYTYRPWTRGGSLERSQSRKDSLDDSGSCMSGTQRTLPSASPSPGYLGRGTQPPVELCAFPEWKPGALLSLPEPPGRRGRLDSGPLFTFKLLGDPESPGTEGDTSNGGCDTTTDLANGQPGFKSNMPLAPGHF", "assay": "Safety screen", "format": "binding", "protocol": "Blood cell counts, kinase profiler, safety screen, bacterial cytotoxicity, Ames, micronucleus assays were performed by the company Eurofins (France)."}, "[14]": {"biological_target": "CLK1(h) (Homo sapiens, UniProt P49759)", "assay": "Kinase Profiler", "format": "biochemical", "protocol": "as §1"}, "[15]": {"biological_target": "BrSK2(h) (Homo sapiens, UniProt Q8IWQ3)", "assay": "Kinase Profiler", "format": "biochemical", "protocol": "as §2"}, "[16]": {"biological_target": "TSSK2(h) (Homo sapiens, UniProt Q96PF2)", "assay": "Kinase Profiler", "format": "biochemical", "protocol": "as §1"}, "[17]": {"biological_target": "Histamine H1 (Homo sapiens, UniProt P35367)", "sequence (P35367 whole entry)": "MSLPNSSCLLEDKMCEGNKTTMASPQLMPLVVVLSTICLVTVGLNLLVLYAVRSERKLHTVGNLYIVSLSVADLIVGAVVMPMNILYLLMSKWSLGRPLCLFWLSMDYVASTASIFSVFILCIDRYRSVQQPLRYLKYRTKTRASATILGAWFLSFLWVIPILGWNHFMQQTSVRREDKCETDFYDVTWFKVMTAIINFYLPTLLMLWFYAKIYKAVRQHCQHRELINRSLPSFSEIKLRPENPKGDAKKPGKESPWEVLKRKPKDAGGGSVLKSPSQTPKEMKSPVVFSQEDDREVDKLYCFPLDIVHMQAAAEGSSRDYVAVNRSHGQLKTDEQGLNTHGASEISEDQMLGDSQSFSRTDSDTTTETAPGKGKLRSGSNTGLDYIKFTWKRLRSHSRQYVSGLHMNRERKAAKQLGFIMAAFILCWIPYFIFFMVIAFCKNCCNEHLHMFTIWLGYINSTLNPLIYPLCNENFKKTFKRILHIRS", "assay": "Safety screen", "format": "binding", "protocol": "as §2"}, "[18]": {"biological_target": "Tie2 (h) (Homo sapiens, UniProt Q02763)", "assay": "Kinase Profiler", "format": "biochemical", "protocol": "as §2"}, "[19]": {"biological_target": "eEF-2K(h) (Homo sapiens, UniProt O00418)", "sequence (O00418 whole entry)": "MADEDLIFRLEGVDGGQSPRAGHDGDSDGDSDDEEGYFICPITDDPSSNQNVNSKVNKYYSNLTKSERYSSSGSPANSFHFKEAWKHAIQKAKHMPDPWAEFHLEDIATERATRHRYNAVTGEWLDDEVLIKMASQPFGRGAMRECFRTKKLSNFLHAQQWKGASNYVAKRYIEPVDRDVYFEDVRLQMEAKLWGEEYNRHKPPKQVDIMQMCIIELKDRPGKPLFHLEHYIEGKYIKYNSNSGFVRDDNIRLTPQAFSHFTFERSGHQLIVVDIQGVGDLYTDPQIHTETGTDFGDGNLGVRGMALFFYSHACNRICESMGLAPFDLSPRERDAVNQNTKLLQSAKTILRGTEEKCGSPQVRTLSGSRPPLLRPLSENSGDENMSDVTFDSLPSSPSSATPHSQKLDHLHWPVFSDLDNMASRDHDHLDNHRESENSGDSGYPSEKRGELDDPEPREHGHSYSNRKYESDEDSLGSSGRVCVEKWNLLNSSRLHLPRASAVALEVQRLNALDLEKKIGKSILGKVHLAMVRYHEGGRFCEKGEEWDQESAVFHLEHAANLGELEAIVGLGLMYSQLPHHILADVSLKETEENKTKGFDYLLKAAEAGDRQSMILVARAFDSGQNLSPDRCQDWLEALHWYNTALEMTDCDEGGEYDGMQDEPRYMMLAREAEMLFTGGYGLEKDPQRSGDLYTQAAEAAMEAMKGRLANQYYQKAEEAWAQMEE", "assay": "Kinase Profiler", "format": "biochemical", "protocol": "as §1"}, "[20]": {"biological_target": "IR(h), activated (Homo sapiens, UniProt P06213)", "assay": "Kinase Profiler", "format": "biochemical", "protocol": "as §2"}, "[21]": {"biological_target": "CK2α1(h) (Homo sapiens, UniProt P68400)", "assay": "Kinase Profiler", "format": "biochemical", "protocol": "as §1"}, "[22]": {"biological_target": "FGFR2(N549H)(h) (Homo sapiens, UniProt P21802, N549H)", "assay": "Kinase Profiler", "format": "biochemical", "protocol": "as §1"}, "[23]": {"biological_target": "PDGFRα(D842V)(h) (Homo sapiens, UniProt P16234, D842V)", "assay": "Kinase Profiler", "format": "biochemical", "protocol": "as §1"}, "[24]": {"biological_target": "EphA3(h) (Homo sapiens, UniProt P29320)", "assay": "Kinase Profiler", "format": "biochemical", "protocol": "as §2"}, "[25]": {"biological_target": "Cyclooxygenase COX-2 (Homo sapiens, UniProt P35354)", "sequence (P35354 18-604)": "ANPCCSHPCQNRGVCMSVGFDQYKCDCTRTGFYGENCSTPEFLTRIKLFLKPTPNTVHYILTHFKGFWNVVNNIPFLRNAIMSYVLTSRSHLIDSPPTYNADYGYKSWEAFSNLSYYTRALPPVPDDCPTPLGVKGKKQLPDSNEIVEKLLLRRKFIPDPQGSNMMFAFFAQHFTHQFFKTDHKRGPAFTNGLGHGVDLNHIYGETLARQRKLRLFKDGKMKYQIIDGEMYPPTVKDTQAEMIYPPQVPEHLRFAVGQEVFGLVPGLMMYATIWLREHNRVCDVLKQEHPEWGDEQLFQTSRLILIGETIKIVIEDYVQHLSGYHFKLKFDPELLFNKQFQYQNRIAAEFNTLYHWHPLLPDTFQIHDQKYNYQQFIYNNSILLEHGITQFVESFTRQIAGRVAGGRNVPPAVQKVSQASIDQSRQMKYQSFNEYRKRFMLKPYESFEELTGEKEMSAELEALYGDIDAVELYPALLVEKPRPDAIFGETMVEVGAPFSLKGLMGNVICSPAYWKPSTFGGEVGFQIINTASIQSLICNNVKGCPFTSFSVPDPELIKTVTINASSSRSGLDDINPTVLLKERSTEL", "assay": "Safety screen", "format": "biochemical", "protocol": "as §2"}, "[26]": {"biological_target": "EphA2(h) (Homo sapiens, UniProt P29317)", "assay": "Kinase Profiler", "format": "biochemical", "protocol": "as §2"}, "[27]": {"biological_target": "Lyn(m) (Mus musculus, UniProt P25911)", "sequence (P25911 2-512 limits assumed)": "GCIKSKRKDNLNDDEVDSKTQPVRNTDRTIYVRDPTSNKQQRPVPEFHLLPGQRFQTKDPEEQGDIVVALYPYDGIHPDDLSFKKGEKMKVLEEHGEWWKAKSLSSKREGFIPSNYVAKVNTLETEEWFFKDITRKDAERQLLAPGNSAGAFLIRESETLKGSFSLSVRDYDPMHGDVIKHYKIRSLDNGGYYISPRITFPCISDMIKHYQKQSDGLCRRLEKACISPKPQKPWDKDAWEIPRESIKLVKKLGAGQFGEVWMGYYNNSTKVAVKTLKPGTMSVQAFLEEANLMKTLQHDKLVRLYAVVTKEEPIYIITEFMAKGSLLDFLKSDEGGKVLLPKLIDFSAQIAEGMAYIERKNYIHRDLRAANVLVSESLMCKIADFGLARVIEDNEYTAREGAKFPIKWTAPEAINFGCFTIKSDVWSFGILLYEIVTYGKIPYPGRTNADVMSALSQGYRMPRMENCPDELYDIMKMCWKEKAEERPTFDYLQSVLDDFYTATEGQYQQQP", "assay": "Kinase Profiler", "format": "biochemical", "protocol": "as §1"}, "[28]": {"biological_target": "mTOR(h) (Homo sapiens, UniProt P42345)", "assay": "Kinase Profiler", "format": "biochemical", "protocol": "as §1"}, "[29]": {"biological_target": "DCAMKL3(h) (Homo sapiens, UniProt Q9C098)", "assay": "Kinase Profiler", "format": "biochemical", "protocol": "as §2"}, "[30]": {"biological_target": "PKCμ(h) (Homo sapiens, UniProt Q15139)", "assay": "Kinase Profiler", "format": "biochemical", "protocol": "as §1"}, "[31]": {"biological_target": "ARK5(h) (Homo sapiens, UniProt O60285)", "assay": "Kinase Profiler", "format": "biochemical", "protocol": "as §2"}, "[32]": {"biological_target": "SGK3(h) (Homo sapiens, UniProt Q96BR1)", "assay": "Kinase Profiler", "format": "biochemical", "protocol": "as §1"}, "[33]": {"biological_target": "CK2α2(h) (Homo sapiens, UniProt P19784)", "assay": "Kinase Profiler", "format": "biochemical", "protocol": "as §1"}, "[34]": {"biological_target": "PDK1(h) (Homo sapiens, UniProt O15530)", "assay": "Kinase Profiler", "format": "biochemical", "protocol": "as §2"}, "[35]": {"biological_target": "PTK5(h) (Homo sapiens, UniProt P42685)", "assay": "Kinase Profiler", "format": "biochemical", "protocol": "as §1"}, "[36]": {"biological_target": "Fyn(h) (Homo sapiens, UniProt P06241)", "assay": "Kinase Profiler", "format": "biochemical", "protocol": "as §1"}, "[37]": {"biological_target": "PRP4(h) (Homo sapiens, UniProt Q13523)", "assay": "Kinase Profiler", "format": "biochemical", "protocol": "as §1"}}, "note": "Where “and” joins values, the source holds several entries; their conditions need not be identical. Equal entries are not always repeated."}
{"compound": "COc1ccc(OC)c(NS(=O)(=O)c2ccc(NC(=O)CCSc3ccc(C)cc3)cc2)c1", "note": "[Compound A41]", "values": [{"measurement": "Activity(%)", "setting": "[1]", "result": 100, "unit": "%"}, {"measurement": "Activity(%)", "setting": "[2]", "result": 77, "unit": "%"}, {"measurement": "Activity(%)", "setting": "[3]", "result": 98, "unit": "%"}, {"measurement": "Activity(%)", "setting": "[4]", "result": 100, "unit": "%"}, {"measurement": "% inh.", "setting": "[5]", "result": 14, "unit": "%"}, {"measurement": "Activity(%)", "setting": "[6]", "result": 100, "unit": "%"}, {"measurement": "%Effect, single replicates (1st, 2nd, 3rd)", "setting": "[7]; - S9, 1.0E-04 M", "result": "154.6% and 177.5% and 143.7%"}, {"measurement": "Cytotoxicity (% of control), Mean %Effect", "setting": "[7]; - S9, 1.0E-04 M", "result": 158.6, "unit": "%"}, {"measurement": "%Effect, single replicates (1st, 2nd, 3rd)", "setting": "[7]; - S9, 1.0E-05 M", "result": "82.4% and 76.9% and 77.8%"}, {"measurement": "Cytotoxicity (% of control), Mean %Effect", "setting": "[7]; - S9, 1.0E-05 M", "result": 79.0, "unit": "%"}, {"measurement": "%Effect, single replicates (1st, 2nd, 3rd)", "setting": "[7]; - S9, 1.2E-06 M", "result": "89.7% and 74.1% and 55.8%"}, {"measurement": "Cytotoxicity (% of control), Mean %Effect", "setting": "[7]; - S9, 1.2E-06 M", "result": 73.2, "unit": "%"}, {"measurement": "%Effect, single replicates (1st, 2nd, 3rd)", "setting": "[7]; - S9, 2.5E-05 M", "result": "95.2% and 92.4% and 83.3%"}, {"measurement": "Cytotoxicity (% of control), Mean %Effect", "setting": "[7]; - S9, 2.5E-05 M", "result": 90.3, "unit": "%"}, {"measurement": "%Effect, single replicates (1st, 2nd, 3rd)", "setting": "[7]; - S9, 2.5E-06 M", "result": "80.5% and 83.3% and 82.4%"}, {"measurement": "Cytotoxicity (% of control), Mean %Effect", "setting": "[7]; - S9, 2.5E-06 M", "result": 82.0, "unit": "%"}, {"measurement": "%Effect, single replicates (1st, 2nd, 3rd)", "setting": "[7]; - S9, 5.0E-05 M", "result": "88.8% and 83.3% and 75.9%"}, {"measurement": "Cytotoxicity (% of control), Mean %Effect", "setting": "[7]; - S9, 5.0E-05 M", "result": 82.7, "unit": "%"}, {"measurement": "%Effect, single replicates (1st, 2nd, 3rd)", "setting": "[7]; - S9, 5.0E-06 M", "result": "88.8% and 84.2% and 81.4%"}, {"measurement": "Cytotoxicity (% of control), Mean %Effect", "setting": "[7]; - S9, 5.0E-06 M", "result": 84.8, "unit": "%"}, {"measurement": "%Effect, single replicates (1st, 2nd, 3rd)", "setting": "[7]; - S9, 6.0E-07 M", "result": "92.4% and 82.4% (2×)"}, {"measurement": "Cytotoxicity (% of control), Mean %Effect", "setting": "[7]; - S9, 6.0E-07 M", "result": 85.7, "unit": "%"}, {"measurement": "Activity(%)", "setting": "[8]", "result": 100, "unit": "%"}, {"measurement": "Activity(%)", "setting": "[9]", "result": 94, "unit": "%"}, {"measurement": "Activity(%)", "setting": "[10]", "result": 87, "unit": "%"}, {"measurement": "Activity(%)", "setting": "[11]", "result": 104, "unit": "%"}, {"measurement": "Activity(%)", "setting": "[12]", "result": 99, "unit": "%"}, {"measurement": "% inh.", "setting": "[13]", "result": 41, "unit": "%"}, {"measurement": "Activity(%)", "setting": "[14]", "result": 81, "unit": "%"}, {"measurement": "Activity(%)", "setting": "[15]", "result": 118, "unit": "%"}, {"measurement": "Activity(%)", "setting": "[16]", "result": 111, "unit": "%"}, {"measurement": "% inh.", "setting": "[17]", "result": 41, "unit": "%"}, {"measurement": "Activity(%)", "setting": "[18]", "result": 110, "unit": "%"}, {"measurement": "Activity(%)", "setting": "[19]", "result": 97, "unit": "%"}, {"measurement": "Activity(%)", "setting": "[20]", "result": 104, "unit": "%"}, {"measurement": "Activity(%)", "setting": "[21]", "result": 80, "unit": "%"}, {"measurement": "Activity(%)", "setting": "[22]", "result": 105, "unit": "%"}, {"measurement": "Activity(%)", "setting": "[23]", "result": 112, "unit": "%"}, {"measurement": "Activity(%)", "setting": "[24]", "result": 139, "unit": "%"}, {"measurement": "% inh.", "setting": "[25]", "result": 11, "unit": "%"}, {"measurement": "Activity(%)", "setting": "[26]", "result": 98, "unit": "%"}, {"measurement": "Activity(%)", "setting": "[27]", "result": 110, "unit": "%"}, {"measurement": "Activity(%)", "setting": "[28]", "result": 101, "unit": "%"}, {"measurement": "Activity(%)", "setting": "[29]", "result": 104, "unit": "%"}, {"measurement": "Activity(%)", "setting": "[30]", "result": 104, "unit": "%"}, {"measurement": "Activity(%)", "setting": "[31]", "result": 106, "unit": "%"}, {"measurement": "Activity(%)", "setting": "[32]", "result": 106, "unit": "%"}, {"measurement": "Activity(%)", "setting": "[33]", "result": 109, "unit": "%"}, {"measurement": "Activity(%)", "setting": "[34]", "result": 107, "unit": "%"}, {"measurement": "Activity(%)", "setting": "[35]", "result": 113, "unit": "%"}, {"measurement": "Activity(%)", "setting": "[36]", "result": 102, "unit": "%"}, {"measurement": "Activity(%)", "setting": "[37]", "result": 110, "unit": "%"}]}
